# Measured values published in patent publication US20210038502A1, “S1PR2 ANTAGONISTS FOR TREATING DISEASES INVOLVING ABNORMAL IMMUNE RESPONSES” (INSERM (Institut National de la Santé et de la Recherche …, priority 2017, published 2021).
# Assays:
# tonsil naive T cells = experiment: Transwell chemotaxis of tonsil naive T cells towards S1P; assay type: cell-based, human; conditions: for Effect of pharmacological inhibitor on tonsil naive T cell migration to S1P: tonsil naive T cells, 2 h pre-incubation with inhibitor
# [1] = system: act-CD4+ and act-CD8+ T cells; experiment: Transwell migration of tonsil recently activated T cells (CD38+HLA-DR+) in presence of S1P; assay type: cell-based, human
# Source text: Upon antigen-mediated activation, T cells are retained within secondary lymphoid organs, presumably to sustain their activation and differentiation through serial interactions with antigen presenting cells. Mechanistically, it was previously reported that mouse T cells lose their reactivity during this phase by down regulating S1PR1 expression (Matloubian et al., 2004). We addressed this point in human, exploiting the fact that tonsils contain act-T cells in a variable proportion, classically defined as CD38^+HLA-DR^+.
# tonsil TCM and TEM cells = experiment: Transwell migration of tonsil memory T cells (TCM, TEM) in presence of S1P; assay type: cell-based, human; conditions: for Impact on memory T cell migration in the presence of S1P: tonsil memory T cells
# [2] = system: tonsil CD4+ TRM cells (CD69 positive); experiment: Transwell migration of tonsil resident memory T cells (TRM) in presence of S1P; conditions: irrespective of CD103 expression
# Experimental: All material was used after obtaining informed consent and the research was conducted in accordance with the Helsinki Declaration. Human peripheral blood was obtained from healthy donors. Cells were ficollized and then washed several times in complete medium before resuspension in chemotaxis medium. Pediatric tonsils were obtained from patients undergoing tonsillectomy and were cut into pieces using a scalpel and then passed through a 70 μM cell strained to produce a cell suspension. Cells were then ficollized and washed before migration studies.
# Tonsil lymphocytes or PBMC were suspended in RPMI1640 supplemented with 4 mg/ml fatty acid-free bovine albumin (Sigma, St-Louis, USA). […] Cell migration was analyzed in Transwell chambers (Costar, Cambridge, USA) with 5 μm pore-width polycarbonate filters. […] Transmigrated cells were stained for CD3 (UCHT1), CD4 (RPA-T4), CD8 (RPA-T8), CD45RO (UCHL1), CCR7 (G043H7), CD69 (FN50), CD103 (Ber-act8), CD38 (HIT32) and HLA-DR (LN3) and analyzed/counted by flow cytometry (MACSquant, Miltenyi biotec, Bergisch Gladbach, Germany). […] The percentage of input was calculated as the ratio between the number of cells migrating in a given condition and the number of cells used for the chemotaxis assay.
# tonsil T cell subsets = experiment: Transwell migration of tonsil T cell subsets toward CXCL12 +/- S1P
# Experimental: Results are shown as migration index.
# All material was used after obtaining informed consent and the research was conducted in accordance with the Helsinki Declaration. […] Pediatric tonsils were obtained from patients undergoing tonsillectomy and were cut into pieces using a scalpel and then passed through a 70 μM cell strained to produce a cell suspension. Cells were then ficollized and washed before migration studies.
# Tonsil lymphocytes or PBMC were suspended in RPMI1640 supplemented with 4 mg/ml fatty acid-free bovine albumin (Sigma, St-Louis, USA). […] Cell migration was analyzed in Transwell chambers (Costar, Cambridge, USA) with 5 μm pore-width polycarbonate filters. […] PBMC or tonsil cells were added to the top chambers of the transwell systems in the presence or absence of the pharmacological inhibitors and incubated at 37° C. for 2 hours. The chemoattractants were then added in the lower chamber and the cells were allowed to migrate for 2 hours. Transmigrated cells were stained for CD3 (UCHT1), CD4 (RPA-T4), CD8 (RPA-T8), CD45RO (UCHL1), CCR7 (G043H7), CD69 (FN50), CD103 (Ber-act8), CD38 (HIT32) and HLA-DR (LN3) and analyzed/counted by flow cytometry (MACSquant, Miltenyi biotec, Bergisch Gladbach, Germany). All antibodies were purchased from BD-Biosciences (San Jose, Calif.), eBioscience (San Diego, Calif.), Beckman-Coulter (Miami, Fla.) or Biolegend (San Diego, Calif.). […] The percentage of input was calculated as the ratio between the number of cells migrating in a given condition and the number of cells used for the chemotaxis assay.
# blood T cells = experiment: Transwell chemotaxis of blood T cells (PBMC) towards S1P; assay type: cell-based, human
# Source text: T cell subsets were identified by flow cytometry.
# S1PR1 = S1PR1 (Homo sapiens, UniProt P21453); conditions: read-out: Kd of S1P to S1PR1; cited from earlier work
# S1PR1, sequence (P21453 whole entry, species assumed): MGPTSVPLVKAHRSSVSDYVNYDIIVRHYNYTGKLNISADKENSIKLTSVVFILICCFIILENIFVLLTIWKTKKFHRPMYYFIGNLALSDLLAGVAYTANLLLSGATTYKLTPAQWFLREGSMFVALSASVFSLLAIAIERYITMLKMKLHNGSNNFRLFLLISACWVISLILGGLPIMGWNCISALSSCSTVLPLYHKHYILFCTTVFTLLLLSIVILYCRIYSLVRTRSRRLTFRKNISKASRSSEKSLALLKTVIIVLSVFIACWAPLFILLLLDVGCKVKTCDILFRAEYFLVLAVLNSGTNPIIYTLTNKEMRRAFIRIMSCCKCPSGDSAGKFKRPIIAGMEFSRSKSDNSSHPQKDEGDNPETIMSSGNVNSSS
# [3] = system: peripheral T cells and NK cells; conditions: cited from earlier work
structure (smiles),measurement,setting,value
Cc1nn(C)c2nc(NNC(=O)Nc3cc(Cl)nc(Cl)c3)cc(C(C)C)c12 [JTE-013],Effect of pharmacological inhibitor on tonsil naive T cell migration to S1P,tonsil naive T cells; S1P gradient,increased
same,Effect on S1P inhibition of spontaneous migration of act-CD4+ and act-CD8+ T cells,[1]; CD38+HLA-DR+ tonsil T cells,curbed
same,Effect on the inhibitory effect of S1P on TCM and TEM migration,tonsil TCM and TEM cells; tonsil TCM and TEM cells,abrogated
same,Effect on S1P inhibition of spontaneous migration of CD4+ TRM cells,[2]; CD69 positive,abrogated
same,Effect on S1P-mediated decrease of CXCL12-induced migration of TEM and TCM cells,"tonsil T cell subsets; CXCL12 12 ng/ml, S1P 37 nM, JTE-013 1000 nM for 2 h",abrogated
FC(F)(F)c1cccc(-c2noc(-c3cc(-c4ccccc4)c(C(F)(F)F)s3)n2)c1 [SEW2871],Effect of pharmacological inhibitor on tonsil naive T cell migration to S1P,tonsil naive T cells; S1P gradient,strongly inhibited
same,Impact on memory T cell migration in the presence of S1P,tonsil TCM and TEM cells,negative impact
Cc1cc(CN)cc(C)c1NC(=O)c1ccc(-c2cc(Cl)ccc2Cl)o1 [CYM50358],Effect of pharmacological inhibitor on tonsil naive T cell migration to S1P,tonsil naive T cells; S1P gradient,insensitive
"CCCCCCCCCCCCC/C=C/[C@@H](O)[C@@H](N)COP(=O)(O)O [S1P, Sphingosine-1 phosphate]",Response of blood memory T cells to S1P,blood T cells; PBMC,did not respond
same,Response of blood naive T cells to S1P,blood T cells; PBMC from healthy donors,did not respond
same,Effect of S1P gradients on tonsil naive T cell chemotaxis,tonsil naive T cells; compared to control without S1P,strongly increased
same,S1P concentration giving maximum migration of tonsil naive T cells,"tonsil naive T cells; transwell, S1P gradient",30 to 60 nM
same,Kd,S1PR1,8 nM
same,Effect of S1P on spontaneous migration of act-CD4+ and act-CD8+ T cells,[1],strongly inhibited
same,Effect of S1P on spontaneous migration of tonsil TCM and TEM cells,"tonsil TCM and TEM cells; S1P in lower chamber, especially memory CD4 T cells",inhibited
same,Effect of S1P on spontaneous migration of CD4+ TRM cells,[2],inhibited
same,Effect of S1P on CXCL12-induced migration of TEM cells,tonsil T cell subsets; S1P 37 nM in lower chamber,decreased
same,Effect of S1P on CXCL12-induced migration of naive CD4 and CD8 T cells,tonsil T cell subsets; S1P 37 nM in lower chamber,slightly increased
CCCCCCCCc1ccc(CCC(N)(CO)CO)cc1 [FTY720],Effect of pharmacological inhibitor on tonsil naive T cell migration to S1P,tonsil naive T cells; S1P gradient,strongly inhibited
same,Effect on peripheral TEM cells and NK cells in treated patients,[3],does not affect
same,Effect on peripheral naive and central memory T cells in treated patients,[3],quick decrease
same,Impact on memory T cell migration in the presence of S1P,tonsil TCM and TEM cells,negative impact
